Test [1] has as its system Staphylococcus aureus. The experiment in a line: Antibacterial activity against Staphylococcus aureus ATCC 25923 by NCCLS protocol based broth microdilution method. The class given is functional. In general terms: Dilution methods test growth across graded concentrations, often in twofold steps.
For test [2], the system named is Staphylococcus epidermidis. The test can be described thus: Antibacterial activity against Staphylococcus epidermidis ATCC 12228 by NCCLS protocol based broth microdilution method. The class given is functional.
The subject of test [3] is Streptococcus pneumoniae. The test can be described thus: Antibacterial activity against Streptococcus pneumoniae 49619 by NCCLS protocol based broth microdilution method. Format: functional.
The subject of test [4] is Enterococcus faecalis. The experiment in a line: Antibacterial activity against Enterococcus faecalis ATCC 29212 by NCCLS protocol based broth microdilution method. The class given is functional.
For test [5], the system named is Escherichia coli. The experiment in a line: Antibacterial activity against Escherichia coli ATCC 25922 by NCCLS protocol based broth microdilution method. The class given is functional.
Test [6] concerns Klebsiella pneumoniae. The test can be described thus: Antibacterial activity against Klebsiella pneumoniae 13883 by NCCLS protocol based broth microdilution method. Format: functional.
The nature of test [7]: Antibacterial activity against Salmonella choleraesuis 14028 by NCCLS protocol based broth microdilution method. Particulars: Salmonella enterica. The class given is functional, Salmonella enterica subsp. enterica serovar Choleraesuis.
In test [8] the test system is Pseudomonas aeruginosa. The experiment in a line: Antibacterial activity against Pseudomonas aeruginosa 27853 by NCCLS protocol based broth microdilution method. The class given is functional.
The subject of test [9] is Haemophilus influenzae. The test can be described thus: Antibacterial activity against Haemophilus influenzae 33929. The class given is functional.
The test system of test [10] is Haemophilus influenzae. The test can be described thus: Antibacterial activity against Haemophilus influenzae 49247. Format: functional.
Test [11] deals with Streptococcus pneumoniae. The experiment in a line: Antibacterial activity against Streptococcus pneumoniae ATCC 49619. Format: functional.
The test system of test [12] is Escherichia coli. The test can be described thus: Antibacterial activity against Escherichia coli DK pKK 3535. Format: functional.
Test [13] concerns Escherichia coli. The test can be described thus: Antibacterial activity against Escherichia coli DK A2058G. Format: functional.
Test [14] has as its system Streptococcus pneumoniae. The test can be described thus: Antibacterial activity against Streptococcus pneumoniae 655 mefA. The class given is functional.
The test system of test [15] is Staphylococcus aureus. The test can be described thus: Antibacterial activity against Staphylococcus aureus BAA-977 expressing iermA. The class given is functional.
Test [16] has as its system Staphylococcus aureus. The experiment in a line: Antibacterial activity against Staphylococcus aureus ATCC 29213. The class given is functional.
For test [17], the system named is Staphylococcus aureus. The experiment in a line: Antibacterial activity against methicillin resistant Staphylococcus aureus MP513 expressing cErmA. The class given is functional.
Test [18] concerns Staphylococcus aureus. The test can be described thus: Antibacterial activity against methicillin resistant Staphylococcus aureus NRS384 expressing MsrA. Format: functional.
The test system of test [19] is Streptococcus pneumoniae. The test can be described thus: Antibacterial activity against Streptococcus pneumoniae UNT-042 expressing ErmB/MefA. The class given is functional.
Test [20] deals with Streptococcus pyogenes. The test can be described thus: Antibacterial activity against Streptococcus pyogenes ATCC 19615. Format: functional.
In test [21] the test system is Enterococcus faecalis. The experiment in a line: Antibacterial activity against Enterococcus faecalis ATCC 29212. Format: functional.
Test [22] concerns Enterococcus faecalis. The experiment in a line: Antibacterial activity against Enterococcus faecalis UN-047 VRE expressing ErmS. The class given is functional.
Test [23] has as its system Haemophilus influenzae. The experiment in a line: Antibacterial activity against Haemophilus influenzae ATCC 49247. The class given is functional.
The test system of a further test is Acinetobacter baumannii. The experiment in a line: Antibacterial activity against Acinetobacter baumannii ATCC 19606. The class given is functional. The note with it: ATCC 19606 = CIP 70.34 = JCM 6841.
The test system of test [24] is Klebsiella pneumoniae. The test can be described thus: Antibacterial activity against Klebsiella pneumoniae ATCC 10031. Format: functional.
For test [25], the system named is Escherichia coli. The experiment in a line: Antibacterial activity against Escherichia coli ATCC 25922. Format: functional.
Test [26] has as its system Pseudomonas aeruginosa. The test can be described thus: Antibacterial activity against Pseudomonas aeruginosa ATCC 27853. Format: functional.
A further test concerns Pasteurella multocida. The experiment in a line: Antibacterial activity against Pasteurella multocida IATCC 11039 after 24 hrs by broth microdilution method. The class given is functional. The note with it: IATCC 11039, 24 h.
Test [27] relates to Staphylococcus aureus. The test can be described thus: Antibacterial activity against Staphylococcus aureus ATCC 25923 after 24 hrs by broth microdilution method. Format: functional. Particulars: ATCC 25923, 24 h.
In test [28] the test system is Staphylococcus aureus. The experiment in a line: Antibacterial activity against Staphylococcus aureus 10 after 24 hrs by broth microdilution method. The class given is functional. Particulars: Staphylococcus aureus, 10, 24 h.
The subject of test [29] is Staphylococcus epidermidis. The experiment in a line: Antibacterial activity against Staphylococcus epidermidis ATCC 12228 after 24 hrs by broth microdilution method. Format: functional. The note with it: ATCC 12228, 24 h.
The test system of test [30] is Streptococcus pneumoniae. The test can be described thus: Antibacterial activity against Streptococcus pneumoniae ATCC 49619 after 24 hrs by broth microdilution method. Format: functional. Particulars: ATCC 49619, 24 h.
Test [31] relates to Enterococcus faecium. The experiment in a line: Antibacterial activity against Enterococcus faecium 568 after 24 hrs by broth microdilution method. The class given is functional. The note with it: Enterococcus faecium, 568, 24 h.
Test [32] concerns Enterococcus faecium. The test can be described thus: Antibacterial activity against Enterococcus faecium 569 after 24 hrs by broth microdilution method. Format: functional. Particulars: Enterococcus faecium, 569, 24 h.
Another test has as its system Cutibacterium acnes. The experiment in a line: Antibacterial activity against Propionibacterium acnes ATCC 6919 after 24 hrs by broth microdilution method. The class given is functional. Particulars: ATCC 6919, 24 h.
Test [33] has as its system Escherichia coli. The test can be described thus: Antibacterial activity against Escherichia coli ECM1888 after 24 hrs by broth microdilution method. Particulars: ECM1888, 24 h. The class given is functional.
Test [34] deals with Escherichia coli. The experiment in a line: Antibacterial activity against Escherichia coli leuS ANA395 after 24 hrs by broth microdilution method. The class given is functional. The note with it: leuS ANA395, 24 h.
Another test has as its system Mannheimia haemolytica. The experiment in a line: Antibacterial activity against Mannheimia haemolytica IATCC 33396 after 24 hrs by broth microdilution method. Format: functional. The note with it: IATCC 33396, 24 h.
The next test relates to Histophilus somni. The experiment in a line: Antibacterial activity against Histophilus somni ATCC 700025 after 24 hrs by broth microdilution method. The class given is functional. The note with it: ATCC 700025, 24 h.
Test [35] has as its system Streptococcus pyogenes. The test can be described thus: Antibacterial activity against Streptococcus pyogenes ATCC 19615 after 24 hrs by broth microdilution method. Format: functional. Particulars: ATCC 19615, 24 h.

Each structure is given as a SMILES string. ≈ marks a conversion by molar mass, not a printed value. A value given as a limit tells only on which side of the number the result lay.

Consider `CC[C@H]1OC(=O)[C@H](C)[C@@H](O[C@H]2C[C@@](C)(OC)[C@@H](OC(=O)NC[C@H]3OB(O)c4ccccc43)[C@H](C)O2)[C@H](C)[C@@H](O[C@@H]2O[C@H](C)C[C@H](N(C)C)[C@H]2O)[C@](C)(OC)C[C@@H](C)C(=O)[C@H](C)[C@@H](O)[C@]1(C)O`, for which the MIC in the test on Staphylococcus aureus [1] is 2 µg/mL (≈ 2.13 µM); in test [2], 0.5 µg/mL (≈ 0.534 µM); in the test with Streptococcus pneumoniae [3] it was 0.5 µg/mL (≈ 0.534 µM); in the test with Enterococcus faecalis [4] it was 4 µg/mL (≈ 4.27 µM); in the test on Escherichia coli [5], more than 64 µg/mL; in the test on Klebsiella pneumoniae [6], more than 64 µg/mL. Besides, the MIC (in [7]; with Pseudomonas aeruginosa [8]) was more than 64 µg/mL each time.

For the molecule `CC[C@H]1OC(=O)[C@H](C)C(=O)[C@H](C)[C@@H](O[C@@H]2O[C@H](C)C[C@H](N(C)C)[C@H]2O)[C@@]2(C)C[C@@H](C)/C(=N\C(C)=O)[C@H](C)[C@@H](OC/C(=N\OCc3ccc(-c4ccno4)cn3)CO2)[C@]1(C)O`, the MIC with Haemophilus influenzae [9] and against Haemophilus influenzae [10] was 4 µg/mL (≈ 4.75 µM) throughout.

`CC[C@H]1OC(=O)[C@@](C)(F)C(=O)[C@H](C)[C@@H](O[C@@H]2O[C@H](C)C[C@H](N(C)C)[C@H]2O)[C@](C)(OC)C[C@@H](C)C(=O)[C@H](C)[C@H]2N(CCCCn3nncc3-c3cccs3)C(=O)O[C@]12C`: the MIC with Streptococcus pneumoniae [11] was 1 µg/mL (≈ 1.2 µM); against Escherichia coli [12] it was 1 µg/mL (≈ 1.2 µM); with Escherichia coli [13], 0.004 µg/mL (≈ 0.00478 µM); with Streptococcus pneumoniae [14], 0.5 µg/mL (≈ 0.598 µM).

Turning to `CC[C@H]1OC(=O)[C@H](C)C(=O)[C@H](C)[C@@H](O[C@@H]2O[C@H](C)C[C@H](N(C)C)[C@H]2O)[C@](C)(OC)C[C@@H](C)CN[C@H](C)[C@H]2N(CCCCn3cc(-c4cccc(N)c4)nn3)C(=O)O[C@]12C`, the MIC in the test on Staphylococcus aureus [15] is 0.5 µg/mL (≈ 0.604 µM); with Streptococcus pneumoniae [11], not above 0.03 µg/mL; in the test on Staphylococcus aureus [16], 0.5 µg/mL (≈ 0.604 µM); in the test with Staphylococcus aureus [17], more than 64 µg/mL; against Staphylococcus aureus [18], 1 µg/mL (≈ 1.21 µM); in the test on Streptococcus pneumoniae [19] it was 2 µg/mL (≈ 2.42 µM). Besides, the MIC was not above 0.03 µg/mL against Streptococcus pyogenes [20]; 0.125 µg/mL (≈ 0.151 µM) against Enterococcus faecalis [21]; more than 64 µg/mL in the test with Enterococcus faecalis [22]; 2 µg/mL (≈ 2.42 µM) against Haemophilus influenzae [23]; 4 µg/mL (≈ 4.83 µM) in the test with Acinetobacter baumannii; 2 µg/mL (≈ 2.42 µM) in the test with Klebsiella pneumoniae [24]. The MIC with Escherichia coli [25] came out at 4 µg/mL (≈ 4.83 µM); against Pseudomonas aeruginosa [26] it was 64 µg/mL (≈ 77.3 µM).

For the molecule `CC[C@H]1OC(=O)[C@@](C)(F)C(=O)[C@H](C)[C@@H](O[C@@H]2O[C@H](C)C[C@H](N(C)C)[C@H]2O)[C@](C)(OC)C[C@@H](C)C(=O)[C@H](C)[C@H]2N(CCCCn3cc(-c4cccs4)nn3)C(=O)O[C@]12C`, the MIC with Streptococcus pneumoniae [11] was determined as 1 µg/mL (≈ 1.2 µM); against Escherichia coli [12], 1 µg/mL (≈ 1.2 µM); in the test on Escherichia coli [13] it was 0.004 µg/mL (≈ 0.00478 µM); in the test on Streptococcus pneumoniae [14], 0.5 µg/mL (≈ 0.598 µM).

Take `CC[C@H]1OC(=O)[C@H](C)[C@@H](O[C@H]2C[C@@](C)(OC)[C@@H](OC(=O)NCCCNC(=O)CCc3cccc4c3B(O)OC4)[C@H](C)O2)[C@H](C)[C@@H](O[C@@H]2O[C@H](C)C[C@H](N(C)C)[C@H]2O)[C@](C)(O)C[C@@H](C)CN(C)[C@H](C)[C@H]2OC(=O)O[C@@]21C`: the MIC worked out at 4 µg/mL (≈ 3.76 µM) in the test on Pasteurella multocida; 4 µg/mL (≈ 3.76 µM) against Staphylococcus aureus [27]; 0.5 µg/mL (≈ 0.47 µM) against Staphylococcus aureus [28]; 8 µg/mL (≈ 7.53 µM) in test [29]; 0.13 µg/mL (≈ 0.122 µM) in the test on Streptococcus pneumoniae [30]; 0.13 µg/mL (≈ 0.122 µM) in the test on Enterococcus faecium [31]. Further, the MIC with Enterococcus faecium [32] is 2 µg/mL (≈ 1.88 µM); with Cutibacterium acnes it was not above 0.12 µg/mL; in the test on Escherichia coli [33], 8 µg/mL (≈ 7.53 µM); in the test with Escherichia coli [34], 8 µg/mL (≈ 7.53 µM); in the test with Mannheimia haemolytica it was 8 µg/mL (≈ 7.53 µM); with Histophilus somni it was 4 µg/mL (≈ 3.76 µM). This molecule yielded an MIC in the test with Streptococcus pyogenes [35] of 0.25 µg/mL (≈ 0.235 µM).

For the origin of these results see ChEMBL document CHEMBL4334493, “14- and 15-membered lactone macrolides and their analogues and hybrids: structure, molecular mechanism of action and biological activity” (Eur J Med Chem, 2019).
